The values below come from patent US20170009266A1, “PROCESS FOR THE ATTACHMENT OF A GALNAC MOIETY COMPRISING A (HETERO)ARYL GROUP TO A GLCNAC MOIETY, AND PRODUCT OBTAINED THEREBY” (SYNAFFIX B.V., priority 2014, published 2017).

Format in all cases: biochemical, bovine
In one test the target is T1, Gal-T1(Y289L) (Bos taurus, UniProt P08037, I205M/L206V/P187L/V158I/Y289L).
T1 construct: host or cells: CHO K1
T1 sequence (P08037 74-402 V158I/P187L/I205M/L206V/Y289L): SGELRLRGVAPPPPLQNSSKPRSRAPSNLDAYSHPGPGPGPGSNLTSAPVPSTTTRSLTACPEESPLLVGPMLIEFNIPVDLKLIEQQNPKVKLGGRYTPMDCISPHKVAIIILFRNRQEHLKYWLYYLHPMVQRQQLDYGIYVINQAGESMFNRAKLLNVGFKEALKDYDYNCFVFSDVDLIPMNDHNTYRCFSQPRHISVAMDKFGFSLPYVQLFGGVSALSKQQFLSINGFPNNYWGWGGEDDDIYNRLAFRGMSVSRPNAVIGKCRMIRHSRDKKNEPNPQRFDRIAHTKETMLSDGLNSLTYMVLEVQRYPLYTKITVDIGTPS
Description: Glycosyltransfer to trimmed trastuzumab with Gal-T1(Y289L) expressed in CHO. The following applies: trimmed trastuzumab 10 mg/mL; UDP derivative 5 mM; enzyme 0.5 mg/mL; pH 8.0, 30° C. overnight. The text has this:
(§1) A set of Gal-T 1 mutants encoding residues 74-402 of bovine Gal-T 1 were transiently expressed in CHO K1 cells by Evitria (Zurich, Switzerland) which include the Gal-T1 single mutants Y289L (represented by SEQ ID NO: 26), Y289F (represented by SEQ ID NO: 27), Y289M (represented by SEQ ID NO: 28), Y289V (represented by SEQ ID NO: 29), Y289A (represented by SEQ ID NO: 30), and Y289G (represented by SEQ ID NO: 31), and the Gal-T1 double mutants Y289L,C342T (represented by SEQ ID NO: 32), and Y289M,C342T (represented by SEQ ID NO: 33). The mutants were purified using a cation exchange column (Source 15S HR16/10 column, GE Healthcare) as described above. Purified proteins were analyzed by SDS-PAGE.
(§2) Trimmed trastuzumab (10 mg/mL, […] obtained by Endo S treatment of trastuzumab, was incubated with the 4-azido-3,5-difluorobenzoyl derivative of UDP-galactosamine (23, 5 mM) and one of the Gal-T1 single mutants Y289L, Y289M, Y289A or Y289G (expressed in CHO as described above) (0.5 mg/mL) in 10 mM MnCl2 and 25 mM Tris-HCl pH 8.0 at 30° C. overnight. Mass spectral analysis of the reduced sample indicated a partial conversion of the core GlcNac(Fuc)-substituted trastuzumab heavy chain (49504 Da) into product 30 (49818 to 49825 Da, 20 to 50% of total heavy chain depending on the Gal-T1 mutant used), resulting from transfer of 23 to core GlcNAc(Fuc)-substituted trastuzumab heavy chain. […]

The target of another test is T2, Gal-T1(Y289M) (Bos taurus, UniProt P08037, I205M/L206V/P187L/V158I/Y289M).
T2 construct: host or cells: CHO K1
T2 sequence (P08037 74-402 V158I/P187L/I205M/L206V/Y289M): T1 sequence (P08037 74-402 V158I/P187L/I205M/L206V/Y289L) with L216M
Description: Glycosyltransfer to trimmed trastuzumab with Gal-T1(Y289M) expressed in CHO. The following applies: trimmed trastuzumab 10 mg/mL; UDP derivative 5 mM; enzyme 0.5 mg/mL; pH 8.0, 30° C. overnight.
Text: as §1, §2

A further test has as its target T3, Gal-T1(Y289M,C342T) (Bos taurus, UniProt P08037, C342T/Y289M).
T3 construct: host or cells: CHO K1
T3 sequence (P08037 74-402 V158I/P187L/I205M/L206V/Y289M/C342T): T1 sequence (P08037 74-402 V158I/P187L/I205M/L206V/Y289L) with L216M, C269T
Description: Glycosyltransfer to trimmed trastuzumab with Gal-T1(Y289M,C342T) expressed in CHO. The following applies: trimmed trastuzumab 10 mg/mL; UDP derivative 5 mM; enzyme 1.0 mg/mL; pH 8.0, 30° C. overnight. The procedure:
A solution of 20 μg (modified) IgG was incubated for 1 hour at 37° C. with Fabricator™ (commercially available from Genovis, Lund, Sweden) (1.25 U/μL) in phosphate-buffered saline (PBS) pH 6.6 in a total volume of 10 μL. Fabricator™-digested samples were washed trice with milliQ using an Amicon Ultra-0.5, Ultracel-10 Membrane (Millipore) resulting in a final sample volume of approximately 40 μL. The Fc/2 fragment was analyzed by electrospray ionization time-of-flight (ESI-TOF) on a JEOL AccuTOF. Deconvoluted spectra were obtained using Magtran software.
as §1, with “SDS-PAGE. […]” for “SDS-PAGE.”

Molecules are shown by their SMILES. Positions count from the first letter of the chain named.

Take `[N-]=[N+]=Nc1c(F)cc(C(=O)N[C@H]2[C@@H](OP(=O)(O)OP(=O)(O)OC[C@H]3O[C@@H](n4ccc(=O)[nH]c4=O)[C@H](O)[C@@H]3O)O[C@H](CO)[C@H](O)[C@@H]2O)cc1F` [Compound 23, 4-azido-3,5-difluorobenzoyl Derivative of UDP-GalNH2]: the observed conversion entry on Gal-T1(Y289L) is given as “approximately 30%”; at Gal-T1(Y289M) it was “approximately 50%”. Besides, the “conversion of core GlcNAc(Fuc)-substituted trastuzumab into product” value on Gal-T1(Y289M,C342T) was “complete conversion”.
